Paper PMC3519673, “Discovery of indole tetrafluorophenoxymethylketone-based potent novel small molecule inhibitors of caspase-3” (Organic and Medicinal Chemistry Letters, 2012)
In brackets after ≈: the same amount, converted by molar mass. Read-outs that look alike come from different tables or passages of the source.

Columns and labels:
[1] = target: T1, caspase-3 (Homo sapiens, UniProt P42574); test: Caspase-3 fluorometric inhibition assay (AC-DEVD-AMC substrate); type: biochemical; settings: 10 µM AC-DEVD-AMC, 10 U caspase-3
T1 construct: purchased Sigma-Aldrich C1224
T1 sequence (P42574 29-175 limits assumed): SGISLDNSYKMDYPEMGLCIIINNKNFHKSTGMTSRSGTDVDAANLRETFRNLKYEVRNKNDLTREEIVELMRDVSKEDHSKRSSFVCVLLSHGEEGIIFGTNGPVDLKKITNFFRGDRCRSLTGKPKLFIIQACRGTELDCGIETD
T1 sequence (P42574 176-277 limits assumed): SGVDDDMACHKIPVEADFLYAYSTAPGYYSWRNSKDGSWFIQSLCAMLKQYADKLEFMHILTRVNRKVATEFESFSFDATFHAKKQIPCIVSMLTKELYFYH
Description: Fluorescence measurements were done using VICTOR2V 96/384 multilabel plate reader (PerkinElmer Life Sciences, MA, USA) at λex = 360 nm and λem = 460 nm top readout (ex, excitation; em, emission) in Corning black 96-well flat bottom plates. The enzyme activity was measured at 30°C after 30 min. Trans-epithelial resistance (TEER) measurements (for monolayer integrity) were made using instrument from World Precision Instrument (Florida, USA). HPLC (1100 series, Agilent Technologies Inc., CA, USA) was performed on reverse phase column (Zorbax Eclipse XDB C18, 150 × 4.6 mm, 5 μm). LC-MS/MS was performed in multiple reaction monitoring mode using Applied Biosystems API 3200 (Chromos, Singapore) coupled to Agilent Technologies 1100 series HPLC on a reverse phase column (Zorbax Eclipse XDB C18, 50 × 4.6 mm, 5 μm).
Screening of compounds was carried out at two different concentrations (1 and 10 μM). […]
The ability of NCEs to inhibit the activity of human recombinant caspases as well as other proteases was determined using a standard fluorometric microplate assay as described in [1, 10]. […] Activities of the other caspases were determined similarly using the corresponding fluorogenic substrates: 50 U of caspase-1 and 10 μM N-acetyl-Tyr-Val-Ala-Asp-7-amido-4-methylcoumarin. […]

[2] = Kinetic aqueous solubility (shake flask, 96-well); type: physicochemical; settings: pH 7.4, aqueous buffer, kinetic from dmso stock
Description: After 16 h of incubation, the supernatant was subjected for analysis.

[3] = Microsomal stability; type: in vitro ADME; settings: mouse liver microsomes, 1 µM, NADPH and UDPGA
Description: Mouse liver microsomes (in-house prepared) and pooled human liver microsomes (BD Gentest, CA, USA) were incubated with 1-μM test compounds at 37°C for 15 and 60 min using NADPH and UDPGA as co-factors. The reaction was stopped by the addition of cold acetonitrile, precipitated protein was removed, and the supernatants were analyzed.

[4] = target: T2, caspase-1 (Homo sapiens, UniProt P29466); test: Caspase-1 counterscreen assay; type: biochemical; settings: read-out: % inhibition at 10 µM Caspase-1; compound 10 µM
T2 construct: purchased Enzo Life Sciences, Inc. BML-AK701
T2 sequence (P29466 120-297 limits assumed): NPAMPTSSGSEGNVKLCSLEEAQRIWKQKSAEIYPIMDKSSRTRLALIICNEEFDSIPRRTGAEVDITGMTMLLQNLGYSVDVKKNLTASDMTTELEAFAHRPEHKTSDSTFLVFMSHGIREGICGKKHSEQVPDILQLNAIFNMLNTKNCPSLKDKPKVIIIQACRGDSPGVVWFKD
T2 sequence (P29466 317-404 limits assumed): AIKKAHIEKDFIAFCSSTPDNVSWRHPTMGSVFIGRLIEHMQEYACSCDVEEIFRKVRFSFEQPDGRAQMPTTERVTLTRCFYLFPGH
Description: (§1) Screening of compounds was carried out at two different concentrations (1 and 10 μM). Selected compounds were subjected to dose response determination in semi-log concentration (serial threefold dilutions) at constant DMSO concentration of 1% with highest compound concentration at 100 μM. Counterscreening against some of proteases, permeability, and CYP450 inhibition studies was carried out for few selected compounds at 10 μM concentration.
The ability of NCEs to inhibit the activity of human recombinant caspases as well as other proteases was determined using a standard fluorometric microplate assay as described in [1, 10]. The assay buffer contained 25 mM sodium HEPES, 50 mM KCl, 0.1% CHAPS, and 1 mM β-mercaptoethanol, pH7.4. To a reaction mixture (100 μL) containing the above buffer, 10 μM AC-DEVD-AMC and 10 U caspase-3 were added in a black 96-well microplate. Activities of the other caspases were determined similarly using the corresponding fluorogenic substrates: 50 U of caspase-1 and 10 μM N-acetyl-Tyr-Val-Ala-Asp-7-amido-4-methylcoumarin.
(§2) Percent inhibition=100−[RFU in test wells/RFU in basal control wells×100]

[5] = system: Jurkat (human T-cell leukemia) cell line; test: Anti-apoptotic assay using Jurkat T-cells (staurosporine-induced cell death, resazurin); type: cell-based; settings: compound 10 µM, staurosporine 100 nM, 48 h
Description: The anti-apototic assay was done as described in [10]. Briefly, Jurkat (human T-cell leukemia) cell line (ATCC) was cultured in RPMI-1640 medium with L-glutamine and supplemented with 10% fetal bovine serum and antibiotic solution. Cells were grown at 37°C in 5% CO2 and 95% air environment at 100% humidity. Cells were plated in 45 μL/well of serum-free medium at 2.5 × 10^5 cells/mL and incubated for 1 h before compound addition. Compound stock solutions were diluted with growth medium and added to the cells to obtain desired concentration. One percent DMSO was used for control wells (without the addition of compounds). […] Cells were further incubated for 120 min, and the fluorescence was measured using the Wallac Victor2V plate reader (PerkinElmer Life Sciences) at 531/589 nm ex/em wavelengths. The percent protection from induced apoptosis was calculated using the following equation: […]
where ΔFl denotes the difference in resazurin fluorescence measured at point 0 and after 120-min incubation with the cells; subscripts t, s, and n are fluorescence in the presence of a test compound + staurosporine, staurosporine alone, and no staurosporine, respectively.
Protection against cellular apoptosis was determined using staurosporine as apoptotic inducer in Jurkat cells (human T-cell leukemia), as described in the ‘Methods’ section. […]

[6] = target: T3, Thrombin (Homo sapiens, UniProt P00734); test: Thrombin counterscreen assay; type: biochemical; settings: read-out: % inhibition at 10 µM Thrombin; compound 10 µM
T3 construct: purchased Enzyme Research Laboratories HT1002a
Description: as §1
(§3) Thrombin assay reaction mixture (100 μl) contained 140 ng of enzyme and 100 μM of substrate (Boc-Glu-Ala-Arg-AMC) in Tris–HCl buffer pH 8.5. Cathepsin-B assay buffer contained 50 mM MES, 0.01% CHAPS, 100 μM of substrate (Z-Phe-Arg-AMC HCl), and 0.1 U of enzyme. […] The enzyme activities were monitored (ex/em 355/460) as a time-course measurement of the increase in fluorescence signal from fluorescently labeled peptide substrate for 120 min at room temperature. Percent inhibition calculation was calculated using following equation:
as §2

[7] = target: T4, Cathepsin-B (Homo sapiens, UniProt P07858); test: Cathepsin-B counterscreen assay; type: biochemical; settings: read-out: % inhibition at 10 µM Cathepsin-B; compound 10 µM
T4 construct: purchased Sigma-Aldrich C0150
Description: as §1, §3, §2

[8] = In vivo pharmacokinetic experiment in mice; settings: mouse, plasma, male NMRI mice
Description: Pharmacokinetic profiling was carried out using oral and intravenous route (IV) dosing in male NMRI mice. […] The plasma samples were collected at different time points until 8 hr and were stored frozen at −80°C until analysis. Quantitative bio-analysis of the drugs in the plasma samples was done using an LC-MS/MS. Plasma samples were analyzed following protein precipitation of plasma with acetonitrile containing internal standards.
Curve fitting was performed with Prism 5.1 software (GraphPad Software Inc., San Diego, CA) using built-in equation describing corresponding data models. All the other data were mentioned as mean ± standard deviation of triplicates values. PK parameters were determined using WinNonlin 5.2 software.
Compounds were administered to male NMRI mice either as 1 mg/kg intravenous bolus in 1% (v/v) DMA, 10% (w/v) HP-b-CD in normal saline, or orally by gavage at 5 mg/kg in 1% (v/v) DMA, 1% (w/v) Poloxamer 147, and 10% (w/v) HP-b-CD in saline.

C[C@H](NC(=O)C(=O)Nc1ccccc1C(C)(C)C)C(=O)N[C@@H](CC(=O)O)C(=O)COc1c(F)c(F)cc(F)c1F [IDN6556]
IC50 [1]: 35 nM
solubility at 16 h [2]: 145 µM (≈ 82.6 µg/mL)
% stable at 60 min MLM [3]: 61%
inhibition at 10 µM [4]: 59%
% protection against staurosporine-induced cell death [5]: 73%
inhibition at 10 µM [6]: 7%
inhibition at 10 µM [7]: 0%
Vd ([8]; 1 mg/kg IV): 11.8 L/kg
clearance ([8]; 1 mg/kg IV): 150 mL/min/kg
k el ([8]; 1 mg/kg IV, 5 mg/kg PO): 0.000194 s⁻¹
half-life ([8]; 1 mg/kg IV, 5 mg/kg PO, read-out: Beta t1/2 (converted)): 54 min
AUC(0-inf) ([8]; 1 mg/kg IV, read-out: AUC (0-inf) iv): 111 ng·h/mL
Cmax ([8]; 5 mg/kg PO): 113 ng/mL
Tmax ([8]; 5 mg/kg PO): 30 min
bioavailability ([8]; 5 mg/kg PO vs 1 mg/kg IV, read-out: F (oral bioavailability)): 17.9%
AUC(0-inf) ([8]; 5 mg/kg PO, read-out: AUC (0-inf) po): 99.1 ng·h/mL
